The record followed here is patent US20260001928A1 (CORTERIA PHARMACEUTICALS, priority 2022, published 2026).

*1 amine or outer side, *2 acyl side, *3 side chain or, on linkers, in order; H or OH if unused. Where a SMILES comes first, the peptide text is derived from it. Side-chain parts run from the residue outwards. [ ]: non-standard residue; d: D form. The star is where a group is joined. C20 diacid = O=C(O)CCCCCCCCCCCCCCCCCCC(=O)*; C18 diacid = O=C(O)CCCCCCCCCCCCCCCCC(=O)*; γGlu = O=C(O)[C@H](CCC(=O)[*:2])N[*:1]; NMeI = CC[C@H](C)[C@H](NC)C(=O)O; AEEA = NCCOCCOCC(=O)O; Aib = CC(C)(N)C(=O)O

The nature of data set [1]: Pharmacokinetics in male Sprague Dawley rats after subcutaneous administration. Format: in vivo. As to conditions: plasma, rat.
The target in a further data set is T1, human CRF2a receptor (Homo sapiens, UniProt Q13324).
T1 construct: expressed in transfected cells; host or cells: TeloHEAC cells
T1 sequence (Q13324 1-411): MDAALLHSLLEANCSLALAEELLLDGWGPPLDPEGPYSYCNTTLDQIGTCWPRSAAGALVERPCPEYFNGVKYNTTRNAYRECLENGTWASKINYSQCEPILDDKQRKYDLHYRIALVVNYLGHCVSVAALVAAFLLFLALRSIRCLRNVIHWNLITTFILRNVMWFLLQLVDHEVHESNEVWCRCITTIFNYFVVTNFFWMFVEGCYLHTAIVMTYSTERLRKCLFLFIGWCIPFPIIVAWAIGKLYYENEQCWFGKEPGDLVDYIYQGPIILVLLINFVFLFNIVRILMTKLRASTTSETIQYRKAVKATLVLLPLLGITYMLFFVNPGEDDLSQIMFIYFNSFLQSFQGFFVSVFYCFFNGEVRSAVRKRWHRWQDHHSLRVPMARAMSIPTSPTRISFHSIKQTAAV
The data set can be described thus: Activity at human CRF2a receptor, cAMP functional assay in TeloHEAC cells. Format: cell-based. As to conditions: TeloHEAC cells stably expressing human CRF2a receptor, relative to urocortin 2 (100 nM = 100%). The method, boiled down: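 cAMP accumulation was measured by HTRF 665/620 nm ratio after 30 min at 37° C compound exposure (16 twofold dilutions) of CRF2a-expressing TeloHEAC cells, 10000/well, in HEPES-buffered HBSS plus IBMX. Activity was normalised to urocortin 2 at 100 nM (100%), and EC50 was the concentration giving half-maximal activation.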

Data set [2] can be described thus: Pharmacokinetics in male Sprague Dawley rats after subcutaneous administration. As to conditions: plasma, rat, SC, 0.05 mg/kg. Format: in vivo. How it is done: The pharmacokinetics of UCN-2 derivatives was studied in male Sprague Dawley rats after subcutaneous administration (SC) at 0.05, 0.1, 0.3 or 1 mg/kg. Peptides were formulated as a solution in 10 mM phosphate pH 7.4 buffer+glycerol 85% (2.3% v/v)). […] The supernatant (200 μL) was analyzed by LC-MSMS. Pharmacokinetic parameters were calculated using established non-compartmental methods. The area under the plasma concentration curve versus time (AUC) was determined using Watson LIMS (version 7.6), with linear trapezoidal interpolation in the ascending slope and logarithmic trapezoidal interpolation in the descending slope. The portion of the AUC from the last measurable concentration to infinity was estimated from the equation, Ct/kel, where Ct represents the last measurable concentration and kel is the elimination rate constant. The latter was determined from the concentration curve versus time by linear regression at the terminal phase of the semi-logarithmic plot.

A further data set has as its target T2, CFR1R receptor (Homo sapiens, UniProt P34998).
T2 construct: host or cells: CHO-K1 (clone 2)
T2 sequence (P34998 24-415): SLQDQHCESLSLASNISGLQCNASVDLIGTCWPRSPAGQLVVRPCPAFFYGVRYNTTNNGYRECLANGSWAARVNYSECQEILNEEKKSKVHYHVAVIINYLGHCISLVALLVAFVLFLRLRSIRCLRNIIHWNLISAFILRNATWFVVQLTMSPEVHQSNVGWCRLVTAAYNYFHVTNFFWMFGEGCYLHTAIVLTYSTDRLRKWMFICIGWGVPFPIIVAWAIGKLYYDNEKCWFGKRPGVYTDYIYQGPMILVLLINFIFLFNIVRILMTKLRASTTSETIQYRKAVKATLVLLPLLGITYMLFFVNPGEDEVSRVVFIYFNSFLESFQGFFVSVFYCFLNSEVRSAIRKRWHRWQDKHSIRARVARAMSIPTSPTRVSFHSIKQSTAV
The data set can be described thus: Activity at anti-target CFR1R receptor, cAMP assay in CRF1R-overexpression CHO-K1 cells. As to conditions: 100% = Sauvagine at 100 nM. Format: cell-based. In a few lines: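 Uses frozen stocks of CHO-K1 clone 2 cells overexpressing human CRF1R, plated at 4000 cells/well final, with cAMP measured by the same protocol as the TeloHAEC line. Full-activation control: 100 nM Sauvagine.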
(In general: Changes in cAMP serve as a functional read-out for many G protein-coupled receptors.)

Data set [3] in a line: Chemical stability in buffer (pH 7.4 / pH 4.5), % purity loss. Format: physicochemical. As to conditions: 40° C. vs 5° C., 14 or 28 days; for Buffer stability pH 7.4 % purity loss: 100 mM phosphate buffer pH 7.4. In a few lines: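 LC-UV gave % loss after 14 or 28 days of storage at 5 °C or 40 °C. Samples were diluted supernatants from compound incubated 1 h at room temperature at 10 mg/mL target, in 100 mM acetate pH 4.5 or 100 mM phosphate pH 7.4.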

The subject of the next data set is Sprague Dawley rats. The data set can be described thus: Effect on systolic blood pressure, telemetry in Sprague Dawley rats. Format: in vivo, rat. As to conditions: 0.1 mg/kg SC. The method, boiled down: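 Values are % change from a 1 h pre-dose baseline in systolic pressure, tracked by telemetry for up to 48 hours after a single 0.1 mg/kg subcutaneous dose. Rats (Sprague Dawley, n=2 per peptide) carried aortic catheters and recovered at least 10 days post-surgery; duration of action marks the last time point still showing an effect.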

For `CC[C@H](C)[C@H](N)C(=O)N[C@H](C(=O)N[C@@H](CC(C)C)C(=O)N[C@@H](CO)C(=O)N[C@@H](CC(C)C)C(=O)N[C@@H](CC(=O)O)C(=O)N[C@H](C(=O)N1CCC[C@H]1C(=O)N[C@H](C(=O)N[C@@H](CCCCN)C(=O)N[C@@H](CC(C)C)C(=O)N[C@@H](CCCCNC(=O)COCCOCCNC(=O)COCCOCCNC(=O)CC[C@H](NC(=O)CCCCCCCCCCCCCCCCC(=O)O)C(=O)O)C(=O)N[C@@H](CCCCN)C(=O)N[C@H](C(=O)N[C@@H](CC(C)C)C(=O)N[C@@H](CC(C)C)C(=O)N[C@@H](CCC(=O)O)C(=O)N[C@@H](CCC(N)=O)C(=O)N[C@@H](CCC(=O)O)C(=O)N[C@@H](CCCCN)C(=O)N[C@@H](CCC(N)=O)C(=O)N[C@@H](CCCCN)C(=O)N[C@@H](CCCCN)C(=O)N[C@@H](CCC(N)=O)C(=O)N[C@@H](CCCNC(=N)N)C(=O)N[C@@H](CCC(=O)O)C(=O)N[C@@H](CCC(N)=O)C(=O)N[C@@H](C)C(=O)N[C@@H](CCC(=O)O)C(=O)N[C@H](C(=O)N[C@@H](CC(N)=O)C(=O)N[C@@H](CCCCN)C(=O)N[C@@H](CCC(N)=O)C(=O)N[C@H](C(=O)N[C@@H](CC(C)C)C(=O)N[C@@H](C)C(=O)N[C@@H](CCC(N)=O)C(=O)N[C@H](C(N)=O)C(C)C)[C@@H](C)CC)[C@@H](C)O)[C@@H](C)CC)[C@@H](C)CC)C(C)C)C(C)C` [149 (Comp Y)] (H-IVLSLDVPIKLK([AEEA-AEEA-γGlu-C18 diacid])KILLEQEKQKKQREQAETNKQILAQV-NH2), in data set [1] (IV, 0.1 mg/kg), the AUC(0-t) – broadly, the area under the concentration-time curve up to a stated or last time point – came to 2760 ng·h/mL and the half-life (in general, the time in which the quantity being followed falls by half) was 4.3 h. For the same molecule, in data set [1] (SC, 1.0 mg/kg), the AUC(0-t) came to 14500 ng·h/mL, the concentration peaked (Cmax) at 1040 ng/mL, the Tmax (usually the time from dosing to the highest level) was determined as 2 h and the half-life was 4 h.
Take `CC[C@H](C)[C@H](NC(C)=O)C(=O)N[C@H](C(=O)N[C@@H](CC(C)C)C(=O)N[C@@H](CO)C(=O)N[C@@H](CC(C)C)C(=O)N[C@@H](CC(=O)O)C(=O)N[C@@H](C(=O)N1CCC[C@H]1C(=O)N[C@H](C(=O)N[C@@H](CCCCN)C(=O)N[C@@H](CC(C)C)C(=O)N[C@@H](CCCCNC(=O)CC[C@H](NC(=O)CCCCCCCCCCCCCCCCCCC(=O)O)C(=O)O)C(=O)N[C@@H](CCCCN)C(=O)N[C@H](C(=O)N[C@@H](CC(C)C)C(=O)N[C@@H](CC(C)C)C(=O)N[C@@H](CCC(=O)O)C(=O)N[C@@H](CCC(N)=O)C(=O)N[C@@H](CCC(=O)O)C(=O)N[C@@H](CCCCN)C(=O)N[C@@H](CCC(N)=O)C(=O)N[C@@H](CCCCN)C(=O)N[C@@H](C)C(=O)N[C@@H](CCC(N)=O)C(=O)N[C@@H](CCCNC(=N)N)C(=O)N[C@@H](CCC(=O)O)C(=O)N[C@@H](CCC(N)=O)C(=O)N[C@@H](C)C(=O)N[C@@H](CCC(=O)O)C(=O)N[C@H](C(=O)N[C@@H](CC(N)=O)C(=O)NC(C)(C)C(=O)N[C@@H](CCC(N)=O)C(=O)N[C@H](C(=O)N[C@@H](CC(C)C)C(=O)N[C@@H](C)C(=O)N[C@@H](CCC(N)=O)C(=O)N[C@H](C(N)=O)C(C)C)[C@@H](C)CC)[C@@H](C)O)[C@@H](C)CC)[C@@H](C)CC)C(C)C)C(C)C` [compound 212] (Ac-IVLSLD[dV]PIKLK([γGlu-C20 diacid])KILLEQEKQKAQREQAETN[Aib]QILAQV-NH2): a half-maximal effect at human CRF2a receptor (EC50) was put at 0.11 nM. For the same molecule, in data set [2], the AUC(0-t) was found to be 4680 ng·h/mL, the concentration peaked (Cmax) at 154 ng/mL, the Tmax was 14 h and the half-life was 8 h. Besides, in data set [1] (IV, 0.025 mg/kg), the AUC(0-t) stood at 4840 ng·h/mL and the half-life is 8 h. Besides, the “Emax (% I)” value at CFR1R receptor came to 41 % I. In data set [3], the “Buffer stability pH 7.4 % purity loss” value is reported as 0.3/Not Tested %.
Consider `CC[C@H](C)[C@H](NC)C(=O)N[C@H](C(=O)N[C@@H](CC(C)C)C(=O)N[C@@H](CO)C(=O)N[C@@H](CC(C)C)C(=O)N[C@@H](CC(=O)O)C(=O)N[C@@H](C(=O)N1CCC[C@H]1C(=O)N[C@H](C(=O)N[C@@H](CCCCN)C(=O)N[C@@H](CC(C)C)C(=O)N[C@@H](CCCCNC(=O)COCCOCCNC(=O)COCCOCCNC(=O)CC[C@H](NC(=O)CCCCCCCCCCCCCCCCC(=O)O)C(=O)O)C(=O)N[C@@H](CCCCN)C(=O)N[C@H](C(=O)N[C@@H](CC(C)C)C(=O)N[C@@H](CC(C)C)C(=O)N[C@@H](CCC(=O)O)C(=O)N[C@@H](CCC(N)=O)C(=O)N[C@@H](CCC(=O)O)C(=O)N[C@@H](CCCCN)C(=O)N[C@@H](CCC(N)=O)C(=O)N[C@@H](CCCCN)C(=O)N[C@@H](CCCCN)C(=O)N[C@@H](CCC(N)=O)C(=O)N[C@@H](CCCNC(=N)N)C(=O)N[C@@H](CCC(=O)O)C(=O)N[C@@H](CCC(N)=O)C(=O)N[C@@H](C)C(=O)N[C@@H](CCC(=O)O)C(=O)N[C@H](C(=O)N[C@@H](CC(N)=O)C(=O)N[C@@H](C)C(=O)N[C@@H](CCC(N)=O)C(=O)N[C@H](C(=O)N[C@@H](CC(C)C)C(=O)N[C@@H](C)C(=O)N[C@@H](CCC(N)=O)C(=O)N[C@H](C(N)=O)C(C)C)[C@@H](C)CC)[C@@H](C)O)[C@@H](C)CC)[C@@H](C)CC)C(C)C)C(C)C` [compound 113] (H-[NMeI]VLSLD[dV]PIKLK([AEEA-AEEA-γGlu-C18 diacid])KILLEQEKQKKQREQAETNAQILAQV-NH2), for which the “Systolic blood pressure (Mean) % change from baseline, 8 h” value in the data set with Sprague Dawley rats (8 h, n=2) is listed as −31%. Further, the “Systolic blood pressure (Mean) % change from baseline, 12 h” value in the data set with Sprague Dawley rats (12 h, n=2) is −24%. Also, the “Systolic blood pressure (Mean) % change from baseline, 24 h” value in the data set on Sprague Dawley rats (24 h, n=2) is on record as −7%. In the data set on Sprague Dawley rats (last time point with an effect on BP still observed), the Duration of action is greater than 24 h. The EC50 (in general, the concentration needed to bring the measured effect to its halfway point) was 0.35 nM at human CRF2a receptor and greater than 250 nM at CFR1R receptor (cAMP). For the same molecule, at CFR1R receptor, the “Emax (% I)” value was 6 % I. Moreover, the “Buffer stability pH 4.5 % purity loss” value in data set [3] (100 mM acetate buffer pH 4.5) turned out to be 0%. Also, the “Buffer stability pH 7.4 % purity loss” value in data set [3] is given as 14.7%.
